In ChEMBL document CHEMBL1201862, “PubChem BioAssay data set” (2004):
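Each compound was tested at five concentrations against cells in 96-well plates for 48 hours. GI50: concentration for 50% inhibition of growth.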 Active and inactive are the calls of the source. Rule as the data show it: active = GI50 up to about 1.1 µM and inactive = higher.

What was measured:
Assay in all cases: NCI anticancer screen, dose series, 48 h
786-0 = tested on: 786-0
ACHN = tested on: ACHN
BT-549 = tested on: BT-549
CAKI-1 = tested on: CAKI-1
DU-145 = tested on: DU-145
KM12 = tested on: KM12
M14 = tested on: M14
MDA-MB-435 = tested on: MDA-MB-435
MDA-N = tested on: MDA-N
NCI/ADR-RES = tested on: NCI/ADR-RES
OVCAR-4 = tested on: OVCAR-4
OVCAR-8 = tested on: OVCAR-8
RXF 393 = tested on: RXF 393
SF-268 = tested on: SF-268
SK-MEL-2 = tested on: SK-MEL-2
SK-MEL-5 = tested on: SK-MEL-5
SNB-75 = tested on: SNB-75
T47D = tested on: T47D
UO-31 = tested on: UO-31
NCI-H522 = tested on: NCI-H522

Row | Structure (SMILES) | GI50 (786-0) | GI50 (ACHN) | GI50 (BT-549) | GI50 (CAKI-1) | GI50 (DU-145) | GI50 (KM12) | GI50 (M14) | GI50 (MDA-MB-435) | GI50 (MDA-N) | GI50 (NCI/ADR-RES) | GI50 (OVCAR-4) | GI50 (OVCAR-8) | GI50 (RXF 393) | GI50 (SF-268) | GI50 (SK-MEL-2) | GI50 (SK-MEL-5) | GI50 (SNB-75) | GI50 (T47D) | GI50 (UO-31) | GI50 (NCI-H522)
1 | Cc1cc(NS(=O)(=O)c2ccc(NC(NC(=O)C(C(F)(F)F)C(F)(F)F)(C(F)(F)F)C(F)(F)F)cc2)no1 | > 100 µM (inactive) | > 100 µM (inactive) | > 100 µM (inactive) | > 100 µM (inactive) | > 100 µM (inactive) | > 100 µM (inactive) | 58.7 µM (inactive) | > 100 µM (inactive) | > 100 µM (inactive) | > 100 µM (inactive) | > 100 µM (inactive) | > 100 µM (inactive) | > 100 µM (inactive) | > 100 µM (inactive) | > 100 µM (inactive) | > 100 µM (inactive) | > 100 µM (inactive) | > 100 µM (inactive) | > 100 µM (inactive) | 
2 | C/C1=C/C2=CC(C)C[C@@H]2C(=O)[C@]2(C)C(=O)CC(C)(C)[C@H]2CC1=O (some centres not stated) | > 50 µM (inactive) | > 50 µM (inactive) | > 50 µM (inactive) | > 50 µM (inactive) | > 50 µM (inactive) | > 50 µM (inactive) | > 50 µM (inactive) | > 50 µM (inactive) | > 50 µM (inactive) | > 50 µM (inactive) | > 50 µM (inactive) | > 50 µM (inactive) |  | > 50 µM (inactive) | > 50 µM (inactive) | > 50 µM (inactive) | > 50 µM (inactive) | > 50 µM (inactive) | > 50 µM (inactive) | > 50 µM (inactive)
3 | O=c1n(-c2ccccc2)c(=O)n2n1C1CCC2CC1 | > 100 µM (inactive) | > 100 µM (inactive) | > 100 µM (inactive) | > 100 µM (inactive) | > 100 µM (inactive) | > 100 µM (inactive) | > 100 µM (inactive) | > 100 µM (inactive) | > 100 µM (inactive) | > 100 µM (inactive) |  | > 100 µM (inactive) |  | > 100 µM (inactive) | > 100 µM (inactive) | > 100 µM (inactive) | > 100 µM (inactive) | > 100 µM (inactive) | > 100 µM (inactive) | 
4 | Cc1ccsc1/C=N/Nc1cnccn1 | > 100 µM (inactive) | > 100 µM (inactive) | > 100 µM (inactive) | > 100 µM (inactive) | > 100 µM (inactive) | 99.5 µM (inactive) | > 100 µM (inactive) | > 100 µM (inactive) |  | > 100 µM (inactive) | > 100 µM (inactive) | 27.4 µM (inactive) | > 100 µM (inactive) | > 100 µM (inactive) | > 100 µM (inactive) | > 100 µM (inactive) | > 100 µM (inactive) | > 100 µM (inactive) | > 100 µM (inactive) | 
5 | COc1ccc(C2OC(N)=C(C#N)C3=C2CCCC3C)cc1OC (configuration not stated) | > 100 µM (inactive) | > 100 µM (inactive) | > 100 µM (inactive) | > 100 µM (inactive) | > 100 µM (inactive) | > 100 µM (inactive) | > 100 µM (inactive) | > 100 µM (inactive) | > 100 µM (inactive) | > 100 µM (inactive) |  | > 100 µM (inactive) | > 100 µM (inactive) | > 100 µM (inactive) | > 100 µM (inactive) | > 100 µM (inactive) | 23.8 µM (inactive) | > 100 µM (inactive) | > 100 µM (inactive) | 
6 | O=c1onc2c3ccccc3ncn12 | > 100 µM (inactive) | > 100 µM (inactive) | > 100 µM (inactive) | > 100 µM (inactive) | > 100 µM (inactive) | > 100 µM (inactive) | > 100 µM (inactive) | > 100 µM (inactive) |  | > 100 µM (inactive) | > 100 µM (inactive) | > 100 µM (inactive) | > 100 µM (inactive) | > 100 µM (inactive) | > 100 µM (inactive) | > 100 µM (inactive) | > 100 µM (inactive) | > 100 µM (inactive) | > 100 µM (inactive) | > 100 µM (inactive)
7 | Cc1ccc(S(=O)(=O)NC(=O)NCC(=O)O)cc1 | > 100 µM (inactive) | > 100 µM (inactive) | > 100 µM (inactive) |  | > 100 µM (inactive) | > 100 µM (inactive) | > 100 µM (inactive) |  | > 100 µM (inactive) | > 100 µM (inactive) | > 100 µM (inactive) | > 100 µM (inactive) | > 100 µM (inactive) | > 100 µM (inactive) | > 100 µM (inactive) | > 100 µM (inactive) | > 100 µM (inactive) | > 100 µM (inactive) | > 100 µM (inactive) | > 100 µM (inactive)
8 | CC1=C(C(=S)Nc2ccc(Cl)c(C(=O)OC(C)C)c2)SCCO1 | 16 µM (inactive) | 25.8 µM (inactive) | 17.7 µM (inactive) | 24.2 µM (inactive) | 20.3 µM (inactive) | 19.4 µM (inactive) | 18.8 µM (inactive) | 19.3 µM (inactive) | 18.6 µM (inactive) | 18.8 µM (inactive) | 12.3 µM (inactive) | 20 µM (inactive) |  | 25.1 µM (inactive) | 21.5 µM (inactive) | 16.9 µM (inactive) | 20.1 µM (inactive) | 19.6 µM (inactive) | 14.9 µM (inactive) | 21.4 µM (inactive)
9 | CCCCCCc1cc2cc(C(=O)Nc3ccccc3F)c(=N)oc2cc1O | 11.9 µM (inactive) | 6.08 µM (inactive) | 5.36 µM (inactive) | 6.32 µM (inactive) | 9.31 µM (inactive) | 4.01 µM (inactive) | 10.2 µM (inactive) | 3.39 µM (inactive) | 7.29 µM (inactive) | 2.64 µM (inactive) | 4.93 µM (inactive) | 2.89 µM (inactive) |  | 12.4 µM (inactive) | 7.21 µM (inactive) | 3.19 µM (inactive) |  | 3.51 µM (inactive) | 4.27 µM (inactive) | 2.69 µM (inactive)
10 | CC(=O)OCC1OC(n2c(N)c(C#N)c(-c3ccc(C)cc3)c(C#N)c2=S)C(OC(C)=O)C(OC(C)=O)C1OC(C)=O (configuration not stated) | 15.7 µM (inactive) | 29.1 µM (inactive) | 37.3 µM (inactive) | 63.7 µM (inactive) | 15.4 µM (inactive) | 79.1 µM (inactive) | 16.4 µM (inactive) | 21.2 µM (inactive) | 17.1 µM (inactive) | 30 µM (inactive) | 41.9 µM (inactive) | 15.2 µM (inactive) | 18.7 µM (inactive) | 15.2 µM (inactive) | 15.2 µM (inactive) | 11.1 µM (inactive) | 16 µM (inactive) | 17.5 µM (inactive) | 17.9 µM (inactive) | 
11 | Cc1ccc(S(=O)(=O)N/N=C2/CC[C@H](C(C)(C)C)C[C@@H]2C)cc1 | 17.1 µM (inactive) | 16.6 µM (inactive) | 16.2 µM (inactive) | 13.5 µM (inactive) | 15.2 µM (inactive) | 22.6 µM (inactive) | 13.7 µM (inactive) | 16 µM (inactive) | 17.1 µM (inactive) | 15 µM (inactive) | 0.574 µM (active) | 16 µM (inactive) |  | > 10 µM (inactive) | 17.1 µM (inactive) | 13.8 µM (inactive) | 17.8 µM (inactive) | 10.6 µM (inactive) | 13.7 µM (inactive) | > 10 µM (inactive)
12 | CC(O)(CCCCCl)c1nc2ccccc2s1 (configuration not stated) | > 100 µM (inactive) | > 100 µM (inactive) | 67.9 µM (inactive) | > 100 µM (inactive) | > 100 µM (inactive) | > 100 µM (inactive) | > 100 µM (inactive) | > 100 µM (inactive) | > 100 µM (inactive) | 98.2 µM (inactive) | > 100 µM (inactive) | > 100 µM (inactive) |  | 52.8 µM (inactive) | > 100 µM (inactive) | 51.4 µM (inactive) | > 100 µM (inactive) | 29.8 µM (inactive) | 64.1 µM (inactive) | > 100 µM (inactive)
13 | Nc1nc(-c2ccccc2/N=N/N2CCCC2)nc2ccccc12 | 2.38 µM (inactive) | 2.52 µM (inactive) | 11.8 µM (inactive) | 4.14 µM (inactive) | 4.93 µM (inactive) | 2.13 µM (inactive) | 3.08 µM (inactive) | 2.56 µM (inactive) |  | 2.99 µM (inactive) | 5.96 µM (inactive) | 1.45 µM (inactive) | 5.73 µM (inactive) | 6.7 µM (inactive) | 13.2 µM (inactive) | 4.5 µM (inactive) | 11.5 µM (inactive) | 2.4 µM (inactive) | 1.57 µM (inactive) | 4.28 µM (inactive)
14 | COc1cc(C2c3cc4c(cc3[C@H](NC(=O)c3cccs3)C3COC(=O)[C@H]23)OCO4)cc(OC)c1OC (some centres not stated) | < 0.0221 µM (active) | < 0.0174 µM (active) | < 0.01 µM (active) |  | < 0.01 µM (active) | < 0.01 µM (active) | < 0.0197 µM (active) |  | < 0.01 µM (active) | 0.026 µM (active) |  | < 0.01 µM (active) | 0.0133 µM (active) | < 0.0195 µM (active) | 34.1 µM (inactive) | < 0.014 µM (active) | < 0.0152 µM (active) | 46.7 µM (inactive) | 0.0811 µM (active) | < 0.01 µM (active)
15 | C=C[C@]1(O[Si](C)(C)C)C[C@@]2(C(=O)OCC)C(O)C(=O)N3CCc4cc(OC)c(OC)cc4[C@]312 (some centres not stated) | > 100 µM (inactive) | > 100 µM (inactive) | > 100 µM (inactive) | > 100 µM (inactive) | > 100 µM (inactive) | > 100 µM (inactive) | > 100 µM (inactive) | > 100 µM (inactive) | > 100 µM (inactive) | > 100 µM (inactive) | > 100 µM (inactive) | > 100 µM (inactive) | > 100 µM (inactive) | > 100 µM (inactive) | > 100 µM (inactive) | 44.7 µM (inactive) | > 100 µM (inactive) | > 100 µM (inactive) | > 100 µM (inactive) | 
